The results in this text go back to ChEMBL document CHEMBL4251560, “The Novel 4-Phenyl-2-Phenoxyacetamide Thiazoles modulates the tumor hypoxia leading to the crackdown of neoangiogenesis and evoking the cell death” (Eur J Med Chem, 2018).

Molecules are shown by their SMILES. Active and inactive are the calls of the source. The rule behind the calls is not given here.

Data set [1] deals with Ehrlich. Description: Antitumor activity against mouse EAC solid tumor implanted in ip dosed Swiss albino mouse assessed as reduction in tumor volume administered every alternate day for 3 days. The class given is functional, organism-based.
The test system of data set [2] is A549. Description: Cytotoxicity against human A549 cells assessed as reduction in cell viability after 48 hrs by trypan blue exclusion assay. The class given is functional, cell-based. As to conditions: A549, 48 h.
In data set [3] the test system is Ehrlich. Description: In vivo antiangiogenic activity in mouse EAC implanted in Swiss albino mouse administered ip assessed as regression of tumor-induced angiogenesis in peritoneum administered every alternate day for 3 days. The format is functional, organism-based.
Data set [4] deals with Ehrlich. In words: Antitumor activity against mouse EAC cells implanted in Swiss albino mouse assessed as decrease in tumor volume at 50 mg/kg, ip administered every alternate day for 3 days. The format is functional. To be noted: 72 h, read-out: TGI.
Data set [5] relates to Mus musculus. Description: In vivo induction of apoptosis in mouse EAC cells implanted in Swiss albino mouse assessed as DNA fragmentation at 25 to 50 mg/kg, ip administered every alternate day for 3 days by DNA fragmentation assay. The format is functional, organism-based.
Data set [6] deals with Mus musculus. Description: In vivo inhibition of VEGF secretion in Swiss albino mouse EAC cells implanted with mouse EAC at 25 to 50 mg/kg, ip administered every alternate day for 3 days by ELISA. The class given is functional, organism-based. Background: In an ELISA, binding on a coated surface is turned into a signal by an enzyme label.
For data set [7], the system named is Mus musculus. Description: In vivo inhibition of HIF-1alpha expression in Swiss albino mouse EAC cells implanted with mouse EAC at 25 to 50 mg/kg, ip administered every alternate day for 3 days by immunoblot analysis. The class given is functional, organism-based.
Data set [8] has as its system Ehrlich. Description: Cytotoxicity against mouse EAC cells assessed as reduction in cell viability after 48 hrs by trypan blue exclusion assay. The class given is functional, cell-based.
Data set [9] has as its system Ehrlich. In words: Antitumor activity against mouse EAC cells implanted in Swiss albino mouse assessed as decrease in tumor volume at 25 mg/kg, ip administered every alternate day for 3 days. The format is functional. As to conditions: 72 h, read-out: TGI.
The subject of data set [10] is MDA-MB-468. In words: Cytotoxicity against human MDA-MB-468 cells assessed as reduction in cell viability after 48 hrs by MTT assay. The class given is functional, cell-based. To be noted: MDA-MB-468, 48 h.
The subject of data set [11] is MCF7. Description: Cytotoxicity against human MCF7 cells assessed as reduction in cell viability after 48 hrs by MTT assay. The class given is functional, cell-based. As to conditions: MCF7, 48 h.
Data set [12] has as its system Ehrlich. In words: Antitumor activity against mouse EAC cells implanted in ip dosed Swiss albino mouse assessed as decrease in tumor volume administered every alternate day for 3 days. The class given is functional, organism-based.
For data set [13], the system named is MCF7. Description: Cytotoxicity against human MCF7 cells assessed as reduction in cell viability after 48 hrs by trypan blue exclusion assay. As to conditions: MCF7, 48 h. The class given is functional, cell-based.
In data set [14] the test system is A549. Description: Cytotoxicity against human A549 cells assessed as reduction in cell viability after 48 hrs by MTT assay. The format is functional, cell-based. As to conditions: A549, 48 h. In general terms: Tetrazolium assays rely on reduction of a dye to a coloured formazan, in cell work by metabolically active cells.
The subject of data set [15] is Ehrlich. In words: Antitumor activity against mouse EAC cells implanted in ip dosed Swiss albino mouse assessed as reduction in ascite volume administered every alternate day for 3 days. The class given is functional.
For another data set, the system named is Cornea. In words: Antiangiogenic activity in cornea of alkali injured rat eye assessed as induction of restraining of vessel sprouting applied to centre of cornea for 40 secs post alkali injury. The class given is functional.
In data set [16] the test system is Mus musculus. In words: Toxicity in Swiss albino mouse implanted with mouse EAC cells assessed as induction of adverse effect on liver at 25 to 50 mg/kg, ip administered every alternate day for 3 days. The class given is organism-based. To be noted: in vivo, 72 h.
Data set [17] has as its system Ehrlich. In words: In vivo induction of apoptosis in mouse EAC cells implanted in Swiss albino mouse assessed as EAC cell shrinkage at 25 to 50 mg/kg, ip administered every alternate day for 3 days by Geimsa staining-based microscopic analysis. The format is functional, organism-based.
In data set [18] the test system is Mus musculus. Description: Toxicity in Swiss albino mouse implanted with mouse EAC cells assessed as induction of adverse effect on spleen at 25 to 50 mg/kg, ip administered every alternate day for 3 days. The class given is organism-based. As to conditions: in vivo, 72 h.
The nature of data set [19]: Cytotoxicity against mouse DLA cells assessed as reduction in cell viability after 48 hrs by MTT assay. The class given is functional, cell-based.
Data set [20] concerns MDA-MB-468. Description: Cytotoxicity against human MDA-MB-468 cells assessed as reduction in cell viability after 48 hrs by trypan blue exclusion assay. As to conditions: MDA-MB-468, 48 h. The class given is functional, cell-based.
Data set [21] can be described thus: Cytotoxicity against mouse DLA cells assessed as reduction in cell viability after 48 hrs by trypan blue exclusion assay. The format is functional, cell-based.
The test system of data set [22] is Ehrlich. Description: In vivo induction of apoptosis in mouse EAC cells implanted in Swiss albino mouse assessed as EAC cell membrane blebbing at 25 to 50 mg/kg, ip administered every alternate day for 3 days by Geimsa staining-based microscopic analysis. The format is functional, organism-based.
For data set [23], the system named is Ehrlich. In words: In vivo antiangiogenic activity in mouse EAC implanted in Swiss albino mouse assessed as regression of tumor-induced angiogenesis in peritoneum at 5 mg/kg, ip administered every alternate day for 3 days. The format is functional. As to conditions: 72 h.
In data set [24] the test system is Ehrlich. In words: Antitumor activity against mouse EAC cells implanted in Swiss albino mouse assessed as mouse survival at 25 to 50 mg/kg, ip administered every alternate day for 3 days. The format is functional.
Data set [25] concerns Mus musculus. Description: Up-regulation of MDM2 protein expression in Swiss albino mouse EAC cells implanted with mouse EAC at 25 to 50 mg/kg, ip administered every alternate day for 3 days by immunoblot analysis. The format is functional, organism-based.
The subject of data set [26] is Ehrlich. In words: Antitumor activity against mouse EAC solid tumor implanted in Swiss albino mouse assessed as reduction in tumor growth at 25 mg/kg, ip administered every alternate day for 3 days by animal morphology analysis. The class given is functional, organism-based.
In data set [27] the test system is Ehrlich. Description: In vivo induction of apoptosis in mouse EAC cells implanted in Swiss albino mouse assessed as induction of EAC cell irregular shape at 25 to 50 mg/kg, ip administered every alternate day for 3 days by Geimsa staining-based microscopic analysis. The class given is functional, organism-based.
Another data set relates to Chorioallantoic membrane. In words: In vivo antiangiogenic activity in chicken chorioallantoic membrane assessed as inhibition of recombinant VEGF165-induced vessel formation after 3 days. The format is functional, Gallus gallus.
The test system of data set [28] is Ehrlich. Description: In vivo antiangiogenic activity in mouse EAC implanted in Swiss albino mouse assessed as regression of tumor-induced angiogenesis in peritoneum at 25 mg/kg, ip administered every alternate day for 3 days. The format is functional. To be noted: 72 h.
For data set [29], the system named is Mus musculus. In words: Up-regulation of p53 protein expression in Swiss albino mouse EAC cells implanted with mouse EAC at 25 to 50 mg/kg, ip administered every alternate day for 3 days by immunoblot analysis. The class given is functional, organism-based. (A western blot detects proteins with antibodies after separation by electrophoresis.)
Data set [30] deals with Ehrlich. Description: Cytotoxicity against mouse EAC cells assessed as reduction in cell viability after 48 hrs by MTT assay. The class given is functional, cell-based.
In data set [31] the test system is Ehrlich. Description: Antitumor activity against mouse EAC solid tumor implanted in Swiss albino mouse assessed as reduction in tumor mass at 25 mg/kg, ip administered every alternate day for 3 days. The class given is functional.
Data set [32] relates to Ehrlich. In words: Antitumor activity against mouse EAC cells implanted in ip dosed Swiss albino mouse assessed as reduction in cell density administered every alternate day for 3 days. The class given is functional.

A word on the IC50: it is the concentration needed to halve the response being measured. On to `Cc1ccc(-c2csc(NC(=O)COc3ccc(F)cc3F)n2)cc1`, for which the Activity result was “Dose-dependent effect” in the data set with Ehrlich [1]; “Dose-dependent effect” in the data set with Ehrlich [3]; “Dose-dependent effect” in the data set with Ehrlich [12]; “Dose-dependent effect” in the data set with Ehrlich [15]; 60% in the data set on Cornea; “Non-Toxic” in the data set with Mus musculus [16]. The Activity result in the data set with Mus musculus [18] was “Non-Toxic”; in the data set with Ehrlich [31], “<=10 g”. For the same molecule, the IC50 worked out at 13.2 µM in the data set with A549 [2]; 14 µM in the data set on Ehrlich [8]; 10.5 µM in the data set on MDA-MB-468 [10]; 14.5 µM with MCF7 [11]; 14 µM with MCF7 [13]; 13.9 µM in the data set with A549 [14]. The IC50 turned out to be 13.4 µM in [19], 10.2 µM with MDA-MB-468 [20], 13.9 µM in data set [21] and 14.9 µM in the data set with Ehrlich [30]. Further, the inhibition in vivo at 50 mg/kg in the data set with Ehrlich [4] was determined as 80.2%. Besides, the outcome in the data set with Mus musculus [5], in the data set on Ehrlich [17], in the data set on Ehrlich [22], in the data set on Mus musculus [25], with Ehrlich [27] and in the data set on Mus musculus [29] was Active. Further, the inhibition entry with Mus musculus [6] and in the data set on Mus musculus [7] was “Active” in each case. For the same molecule, the results for the inhibition in vivo at 25 mg/kg with Ehrlich [9] and in the data set on Ehrlich [28] were 74.3% and 30%, respectively. For the same molecule, the “fold change (FC)” value with Ehrlich [15] is 3 - 4; in the data set on Ehrlich [32], 6. Also, the inhibition in vivo at 5 mg/kg with Ehrlich [23] came out at 10%. For the same molecule, the Survival entry in the data set with Ehrlich [24] was “>=23 - 25 day”. Moreover, in the data set with Ehrlich [26], the TGI result was “Active”. In addition, the “inhibition (INH)” value with Chorioallantoic membrane was 80%.
As to `O=C(COc1ccc(Cl)cc1)Nc1nc(-c2ccc(Br)cc2)cs1`, the IC50 in the data set on A549 [2] is 46.4 µM; in the data set on Ehrlich [8], 40.6 µM; in the data set with MDA-MB-468 [10], 52.1 µM; in the data set on MCF7 [11], 41.1 µM; in the data set on MCF7 [13], 41.4 µM; in the data set on A549 [14] it was 46.1 µM. In addition, the IC50 in data set [19] is 60.3 µM; with MDA-MB-468 [20] it was 51.7 µM; in [21], 55.9 µM; in the data set on Ehrlich [30], 40.1 µM.
`O=C(COc1ccc(Br)cc1)Nc1nc(-c2ccc(Br)cc2)cs1`: the IC50 turned out to be 46.6 µM with A549 [2]; 41.1 µM with Ehrlich [8]; 41.7 µM in the data set with MDA-MB-468 [10]; 44.9 µM in the data set on MCF7 [11]; 44.5 µM in the data set on MCF7 [13]; 46.5 µM with A549 [14]. For the same molecule, the IC50 amounted to 52.4 µM in data set [19], 41.1 µM in the data set with MDA-MB-468 [20], 52.1 µM in data set [21] and 41.7 µM with Ehrlich [30].
For `O=C(COc1ccc(F)cc1F)Nc1nc(-c2ccc(Br)cc2)cs1`, the IC50 in the data set on A549 [2] turned out to be 59.1 µM; with Ehrlich [8], 44.7 µM; in the data set with MDA-MB-468 [10] it was 44.2 µM; in the data set with MCF7 [11] it was 52.9 µM; in the data set with MCF7 [13], 52.1 µM; in the data set on A549 [14], 58.8 µM. Also, the IC50 stood at 55.8 µM in [19], 44.7 µM in the data set on MDA-MB-468 [20], 55.3 µM in data set [21] and 44.2 µM with Ehrlich [30].
Turning to `O=C(COc1ccc(F)cc1)Nc1nc(-c2ccc(Br)cc2)cs1`, the IC50 was 51.7 µM with A549 [2]; 45.3 µM in the data set on Ehrlich [8]; 52.1 µM in the data set on MDA-MB-468 [10]; 55.5 µM in the data set on MCF7 [11]; 56.8 µM in the data set on MCF7 [13]; 52.1 µM in the data set on A549 [14]. Also, the IC50 in data set [19] turned out to be 42.5 µM; in the data set on MDA-MB-468 [20], 51.7 µM; in data set [21], 43.5 µM; with Ehrlich [30], 45.5 µM.
`O=C(COc1ccccc1)Nc1nc(-c2ccc(Cl)cc2)cs1`: the IC50 with A549 [2] is 42.8 µM; in the data set with Ehrlich [8], 56.8 µM; in the data set with MDA-MB-468 [10], 55.3 µM; in the data set on MCF7 [11], 60.3 µM; with MCF7 [13], 55.9 µM; with A549 [14], 42.9 µM. The IC50 in data set [19] was 53.5 µM; in the data set on MDA-MB-468 [20], 44.2 µM; in data set [21], 53.2 µM; in the data set with Ehrlich [30], 55.5 µM.
As for `CC(C)c1ccc(OCC(=O)Nc2nc(-c3ccc(Cl)cc3)cs2)c(C(C)C)c1`, the IC50 was 48.6 µM with A549 [2]; 62.8 µM in the data set with Ehrlich [8]; 41.7 µM in the data set on MDA-MB-468 [10]; 40.1 µM in the data set on MCF7 [11]; 40.6 µM in the data set with MCF7 [13]; 48.8 µM with A549 [14]. Besides, the IC50 was 54.3 µM in [19], 41.1 µM in the data set on MDA-MB-468 [20], 54 µM in [21] and 62.2 µM in the data set on Ehrlich [30].
